{"source": "paper PMC8086025", "about": "“A benzopyran with antiarrhythmic activity is an inhibitor of Kir3.1-containing potassium channels” (The Journal of Biological Chemistry, 2021)", "key": {"Adenosine A1": {"molecular_target": "T1, Adenosine A1 (Homo sapiens, UniProt P30542)", "T1 construct": "expressed in transfected cells; host or cells: CHO cells", "T1 sequence (P30542 whole entry)": "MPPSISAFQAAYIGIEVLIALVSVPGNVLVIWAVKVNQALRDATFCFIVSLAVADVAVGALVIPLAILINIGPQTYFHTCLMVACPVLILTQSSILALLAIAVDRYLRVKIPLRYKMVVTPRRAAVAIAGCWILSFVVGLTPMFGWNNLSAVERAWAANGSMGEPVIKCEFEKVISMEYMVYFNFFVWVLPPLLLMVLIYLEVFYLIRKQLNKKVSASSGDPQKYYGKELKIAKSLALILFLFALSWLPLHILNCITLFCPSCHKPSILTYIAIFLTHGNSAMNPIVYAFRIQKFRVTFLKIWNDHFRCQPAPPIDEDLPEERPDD", "test": "Radioligand binding, [3H]DPCPX", "settings": "read-out: % Specific Binding at 10 µM"}, "[1]": {"molecular_target": "T2, Non-steroid nuclear receptors PPARγ (Homo sapiens, UniProt P37231)", "T2 construct": "purchased; host or cells: E. coli", "T2 sequence (P37231 whole entry)": "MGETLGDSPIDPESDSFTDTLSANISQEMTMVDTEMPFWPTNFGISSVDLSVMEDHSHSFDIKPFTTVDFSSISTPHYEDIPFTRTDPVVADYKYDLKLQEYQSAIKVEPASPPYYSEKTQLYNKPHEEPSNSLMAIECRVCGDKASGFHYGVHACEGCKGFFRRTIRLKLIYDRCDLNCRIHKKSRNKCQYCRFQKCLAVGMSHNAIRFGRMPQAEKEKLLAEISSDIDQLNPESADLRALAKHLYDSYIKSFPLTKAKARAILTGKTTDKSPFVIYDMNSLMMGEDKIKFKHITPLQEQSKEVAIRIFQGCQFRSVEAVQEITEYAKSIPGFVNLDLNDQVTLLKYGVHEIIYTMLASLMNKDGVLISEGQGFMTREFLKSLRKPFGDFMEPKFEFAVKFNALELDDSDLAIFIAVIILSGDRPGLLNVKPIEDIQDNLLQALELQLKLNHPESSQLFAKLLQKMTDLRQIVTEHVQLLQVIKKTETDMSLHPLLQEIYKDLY", "test": "Radioligand binding, [3H]rosiglitazone", "settings": "read-out: % Specific Binding at 10 µM"}, "Kir3.1/2 channel [2]": {"molecular_target": "T3, Kir3.1/2 channel (UniProt P48542+P48549)", "T3 sequence (P48549 1-501)": "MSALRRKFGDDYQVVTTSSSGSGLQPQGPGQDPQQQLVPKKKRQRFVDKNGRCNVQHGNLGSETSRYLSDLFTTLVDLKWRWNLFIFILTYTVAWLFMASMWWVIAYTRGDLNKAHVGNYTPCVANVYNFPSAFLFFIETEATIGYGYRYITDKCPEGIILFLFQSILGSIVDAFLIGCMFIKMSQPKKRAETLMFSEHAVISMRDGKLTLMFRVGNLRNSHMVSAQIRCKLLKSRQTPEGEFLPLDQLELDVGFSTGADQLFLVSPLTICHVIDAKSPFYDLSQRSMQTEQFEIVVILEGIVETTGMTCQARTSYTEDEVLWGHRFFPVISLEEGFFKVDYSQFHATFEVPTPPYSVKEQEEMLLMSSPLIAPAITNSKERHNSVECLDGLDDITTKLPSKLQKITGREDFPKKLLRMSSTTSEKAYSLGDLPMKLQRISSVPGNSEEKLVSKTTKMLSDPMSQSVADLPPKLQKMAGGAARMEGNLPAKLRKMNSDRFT", "T3 sequence (P48542 1-425)": "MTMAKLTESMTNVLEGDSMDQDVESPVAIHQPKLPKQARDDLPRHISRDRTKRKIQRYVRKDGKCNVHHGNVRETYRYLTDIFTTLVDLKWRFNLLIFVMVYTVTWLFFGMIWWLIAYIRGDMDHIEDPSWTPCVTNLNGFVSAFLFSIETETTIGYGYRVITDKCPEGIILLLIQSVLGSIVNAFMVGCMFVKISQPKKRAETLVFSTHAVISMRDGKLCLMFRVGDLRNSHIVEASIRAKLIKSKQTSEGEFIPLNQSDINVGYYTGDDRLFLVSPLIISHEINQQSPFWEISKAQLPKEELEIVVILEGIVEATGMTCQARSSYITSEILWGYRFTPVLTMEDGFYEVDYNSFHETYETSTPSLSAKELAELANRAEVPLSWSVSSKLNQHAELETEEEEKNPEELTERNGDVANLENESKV", "test": "TEVC in Xenopus oocytes, Kir3.1/2", "format": "cell-based, human Kir3.1, mouse Kir3.2", "design": "expressed in transfected cells", "settings": "TEVC oocyte experiments; read-out: IC50, inhibition of Kir3.1/2", "method": "X. laevis oocytes were isolated and microinjected as previously described ([6]). Human Kir3.1, mouse Kir3.2, and human Kir3.4 DNA constructs were used for electrophysiology experiments. All cRNA constructs were injected in the amount of 2 ng per oocyte. Injected oocytes were incubated for 2 to 3 days at 18 °C to allow for expression. Whole-cell oocyte currents were then measured using a GeneClamp 500 amplifier (Axon Instruments). Microelectrodes had resistances of 0.5 to 1 megohm using a 3M KCl solution in 1.4% agarose. Oocytes were perfused with a low K^+ (LK) solution ND96 (2 mM KCl, 96 mM NaCl, 1 mM MgCl2, 1.8 mM CaCl2, 5 mM HEPES-Na) to establish a baseline for the recordings. Basal current was measured in a high potassium (HK) solution ND96K (96 mM KCl, 10 mM HEPES-K, 1 mM MgCl2, 1.8 mM CaCl2). To block the current, the oocyte chamber was perfused with 4 mM BaCl2 in ND96K. Only the Barium-sensitive current was used for statistical analysis. To measure the inhibitory activity of the channels, 1 μM BP-G1 in ND96K (HK) was used. Typically, oocytes were held at 0 mV (EK) and the current was monitored constantly using a ramp protocol with a command potential from −80 to +80 mV. Current amplitude was measured at the end of a 1 s sweep. All currents were analyzed when they reached steady state. Error bars in the figures represent SD (N > 4)."}, "Kir3.1/2 channel [3]": {"molecular_target": "T3, Kir3.1/2 channel", "test": "Whole-cell patch clamp, HEK293T cells, Kir3.1/2", "format": "cell-based, human Kir3.1, mouse Kir3.2", "design": "expressed in transfected cells; host or cells: HEK293T", "settings": "whole-cell patch-clamp HEK-293 cells; read-out: IC50, inhibition of Kir3.1/2", "method": "For the experiments shown in Figure 1, G and H, whole-cell currents were recorded with an Axopatch 200B amplifier and pCLAMP software (Molecular Devices). HEK293T cells were transiently transfected with 1 μg Kir3.1 together with 1 μg Kir3.2 or 1 μg Kir3.4 DNA, using polyethylenimine (PEI). The cells were maintained in DMEM supplemented with 10% Fetal Bovine Serum and 1% Penicillin/Streptomycin at 37 °C in a 5% CO2 humidified atmosphere and were studied 24 to 48 h after transfection. HEK293T cells were bathed in Low K^+ (LK) solution (135 mM NaCl, 5 mM KCl, 1.2 mM MgCl2, 1.5 mM CaCl2, 8 mM Glucose, 10 mM HEPES with pH 7.4). High K^+ (HK) solution (5 mM NaCl, 135 mM KCl, 1.2 mM MgCl2, 1.5 mM CaCl2, 8 mM Glucose, 10 mM HEPES with pH 7.4) was perfused to establish basal currents. BP-G1 in HK solution was perfused sequentially in a concentration response manner prior to applying 5 mM BaCl2 in HK to identify remaining barium-insensitive leak currents and subtract them from the current records. […] Cells used in the experiments were selected based on eGFP fluorescence. A ramp protocol from −80 mV to +80 mV was used and currents were recorded at −80 mV in the whole-cell mode (using the Strathclyde Electrophysiology Software from the University of Strathclyde, Glasgow). The patch-clamp data were analyzed offline in pClamp (Molecular Devices) and OriginLab software. […]"}}, "note": "Several values for one entry are separate records, joined by “and”; a condition that tells them apart may be missing. Equal entries are not always repeated.", "data": [{"molecule": "Cc1cc(CO)nc2cc3c(cc12)OC(C)(C)[C@H](O)[C@H]3NCCc1ccccc1", "note": "[BP-G1, (3R,4S)-7-(hydroxymethyl)-2,2,9-trimethyl-4-(2-phenylethylamino)-3,4-dihydropyrano[2,3-g]quinolin-3-ol]", "values": [{"measurement": "inhibition at 10 µM", "setting": "Adenosine A1", "value": 38.4, "unit": "%"}, {"measurement": "inhibition at 10 µM", "setting": "[1]", "value": "< 50", "unit": "%"}, {"measurement": "IC50", "setting": "Kir3.1/2 channel [2]", "value": "55.9 nM and 55 nM"}, {"measurement": "IC50", "setting": "Kir3.1/2 channel [3]", "value": "10 to 30 nM and 32.2 nM"}]}]}
